Where a name gives a salt, the structure may show the parent alone.
Target: T1, human PTP-1B (Homo sapiens, UniProt P18031)
T1 construct: recombinant human PTP-1B[1-298] or PTP-1B[1-322]
T1 sequence (P18031 1-298 limits assumed): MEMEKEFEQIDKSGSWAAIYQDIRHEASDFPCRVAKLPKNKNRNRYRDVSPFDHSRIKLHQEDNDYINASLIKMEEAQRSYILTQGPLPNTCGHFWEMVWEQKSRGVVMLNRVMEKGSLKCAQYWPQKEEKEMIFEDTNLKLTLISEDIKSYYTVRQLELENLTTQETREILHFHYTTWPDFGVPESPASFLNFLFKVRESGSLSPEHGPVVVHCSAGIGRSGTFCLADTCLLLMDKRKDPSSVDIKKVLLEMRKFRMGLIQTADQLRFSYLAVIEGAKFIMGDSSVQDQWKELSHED
Test: PTP-1B inhibitory activity in vitro (IC50)
Type: biochemical
Conditions: inhibitory activity to human PTP-1B
Experimental: Assessment of human PTP-1B (hPTP-1B) activity in the presence of various agents is determined by measuring the amount of inorganic phosphate released from a phosphopeptide substrate using a 96-well microtiter plate format. The assay (100 μL) is performed in an assay buffer comprised of 50 mM TRIS (pH 7.5), 50 mM NaCl, 3 mM DTT at ambient temperature. The assay is typically performed in the presence of 0.4% dimethyl sulfoxide (DMSO). However, concentrations as high as 10% are used with certain poorly soluble compounds. […] Inorganic phosphate, a product of the enzyme reaction, is quantitiated after 15 min as the green color resulting from complexing with the […] reagent and is determined as an A620 using a Molecular Devices (Sunnyvale, Calif.) SpectraMAX Plus spectrophotometer. […] Activity is defined as the net change in absorbance resulting from the activity of the uninhibited hPTP-1B[1-411] minus that of a tube with acid-inactivated hPTP-1B[1-411]. […] Alternatively, the assessment of human PTP-1B activity in the presence of various agents may be determined by measuring the hydrolysis products of known competing substrates. For example, cleavage of substrate para-nitrophenylphosphate (pNPP) results in the release of the yellow-colored para-nitrophenol (pNP) which can be monitored in real time using a spectrophotometer. […] Absorbance at 405 nm is measured using any standard 384 well plate reader. […]

IC50	Structure (SMILES)
104 nM	O=C1CN(c2c(O)cc(CC3CCCCC3)cc2F)S(=O)(=O)N1 [Example No. 13, 5-(4-Cyclohexylmethyl-2-fluoro-6-hydroxyphenyl)-1,1-dioxo-1,2,5-thiadiazolidin-3-one]
158 nM	O=C1CN(c2c(O)c(F)cc(F)c2F)S(=O)(=O)N1 [Example No. 26, 1,1-Dioxo-5-(2,3,6-trifluoro-6-hydroxy-phenyl)-1,2,5]thiadiazolidin-3-one potassium salt]

— patent US8252820B2, “1-orthofluorophenyl substituted 1,2,5-thiazolidinedione derivatives as PTP-as inhibitors” (Novartis AG, priority 2005, dated 2012)
